Results on 2 compounds are retold here after US20260373274A1, “PEPTIDE-LINKED DRUG DELIVERY SYSTEM” (priority 2022, published 2026).

Entries after “also recorded” stand apart in the source; their conditions may differ. Where a SMILES comes first, the peptide text is derived from it. [ ]: non-standard residue; d: D form. The star is where a group is joined. X1 = COc1cc2cc(c1Cl)N(C)C(=O)C[C@H](OC(=O)[C@H](C)N(C)C(=O)CCS*)[C@]1(C)O[C@H]1[C@H](C)[C@@H]1C[C@@](O)(NC(=O)O1)[C@H](OC)/C=C/C=C(\C)C2; βAla = NCCC(=O)O; Mpa = O=C(O)CCS

The subject of data set [1] is kidney injury molecule-1 (KIM-1) and neutrophil gelatinase-associated lipocalin (NGAL). The experiment in a line: Nephrotoxicity studies, urinary renal injury biomarkers by ELISA. Type of data set: in vivo, BALB/c mice. The conditions noted are these: single i.v. dose. On the procedure:
(§1) The level of the acute renal injury biomarkers, neutrophil gelatinase-associated lipocalin (NGAL) and kidney injury molecule-1 (KIM-1) in the urine samples, were measured using ELISA assays according to the manufacturer's instructions (R&D Systems, Minneapolis, MN). […] All the animals (n=3/group) were euthanized at the end of the treatment and the kidneys were collected and fixed in 10% neutral buffered formalin. The tissues were then processed, embedded in paraffin, sectioned, and stained with H&E. Immunohistochemistry (IHC) for kidney injury (NGAL and KIM-I) was also performed.
In general terms: In an ELISA, binding on a coated surface is turned into a signal by an enzyme label.

A short description of another data set: Serum biochemistry. The class given is in vivo, female BALB/c mice. The conditions noted are these: i.v. weekly for 3 weeks, CIS 10 mg/kg; for hepatotoxicity: release of ALP, ALT, and AST / urea nitrogen/creatinine ratio: DM1/DM1-Bdd 0.75 mg/kg. The source says: (§2) At the end of a 3-week treatment, mice were euthanized. The organs/tissues were harvested, fixed in 10% neutral buffered formalin for 2 days. Bones were decalcified in a formic acid solution (Surgipath Decalcifier I; Leica Biosystems, Weltzar, Germany). The samples were then embedded in paraffin, sectioned (5 μm), and stained with H&E for examination by an ACVP board certified anatomic pathologist.
(§3) Hematology and biochemistry—Blood samples were collected via cardiac puncture. A complete blood count, including red blood cell, white blood cell, reticulocyte and platelet counts, with an automated differential leukocyte count, was performed using an IDEXX Procyte DX hematology analyzer (iDEXX, Westbrook. ME). Blood smears were prepared, stained with modified Wright's stain, examined in a blinded fashion by a board-certified veterinary clinical pathologist (T.S.), and imaged using a Nikon Eclipse TE2000-U fluorescent microscope equipped with a photometrics CoolSNAP HQ^2 camera (Nikon Corporation, Tokyo, Japan). The blood was also centrifuged (1,500×G) for 15 min to obtain the serum for biochemical analysis using a Beckman Coulter AU680 analyzer (Beckman Coulter, Brea, CA).

The next data set has as its system panel of BC cell lines. The experiment in a line: Cell viability and cytotoxicity assay, panel. The class given is cell-based. On the procedure:
(§4) Cell viability and cytotoxicity assay—Cancer cells (3×10^3/well) were seeded on a flat bottom 96-well plate overnight. […] CellTiter Glo reagent (Promega, Madison, WI) was added in each well (50 μL). The luminescence generated was recorded using a microplate reader (Tecan US Inc., Morrisville, NC). The dose response curves were plotted, and the half maximal inhibitory concentrations (IC50 values) were calculated using Graph Pad Prism 6.0 software.

Data set [2] deals with major organs (liver, spleen, heart, lungs, and kidneys). The data set can be described thus: Necropsy, histopathology of major organs. Type of data set: in vivo, female BALB/c mice.
Source text: as §2

In data set [3] the test system is orthotopic human UMUC-3 tumors. The experiment in a line: Therapeutic efficacy for treating BC, orthotopic UMUC-3/GFP-Luc xenograft. The conditions noted are these: for anti-tumor activity of i.v. DM1-Bdd versus i.v. DM1: bioluminescence imaging during 3 once-per-week treatments; for animal survival compared to i.t. MIT / survival after 100 days / tumor growth inhibition compared to i.t. MIT: 0.75 mg/kg weekly for 3 weeks. The source says:
These animals were immediately euthanized I week after the completion of the treatment schedule.
(§5) Slides were then counterstained with Hematoxylin.

The nature of data set [4]: Hematology, complete blood count. Type of data set: in vivo, female BALB/c mice. On the procedure:
Necropsy—Seven- to 9-week-old female BALB/c mice (n=4/group) were treated weekly with PBS, DM1, DM1-peptide (0.75 mg/kg of drug content), or cisplatin (10 mg/kg) via tail-vein injection (150 μL). At the end of a 3-week treatment, mice were euthanized. The organs/tissues were harvested, fixed in 10% neutral buffered formalin for 2 days. Bones were decalcified in a formic acid solution (Surgipath Decalcifier I; Leica Biosystems, Weltzar, Germany). The samples were then embedded in paraffin, sectioned (5 μm), and stained with H&E for examination by an ACVP board certified anatomic pathologist.
as §3

For the next data set, the system named is Renca/GFP-Luc tumors. The experiment in a line: Kidney cancer treatment, orthotopic Renca/GFP-Luc syngeneic model. The class given is in vivo, female BALB/c mice; murine tumor cells. On the procedure:
Evaluation of DM1-Bdd for Kidney cancer treatment—Renca/GFP-Luc cells ([…]) in PBS (3 μL) were orthotopically implanted into the kidney capsules of 7- to 9-week-old female BALB/c mice (Jackson Laboratory, Bar Harbor, ME) as previously described. The tumor progression was confirmed by bioluminescence imaging. […] The animals were monitored for tumor growth inhibition and survival as described above. Additional mice were used for histopathological analysis (n=4/group).
as §5

The test system of the next data set is Renca. The experiment in a line: Cell viability and cytotoxicity assay. The class given is cell-based, murine. The note with it: 72 h. On the procedure:
as §4

A further data set relates to UMUC-3. The data set can be described thus: Cell viability and cytotoxicity assay. The class given is cell-based, human. The note with it: 72 h. On the procedure: as §4
Data set [5] is described as follows: In vitro drug release study, DM1-peptide. Type of data set: physicochemical. The note with it: GSH (1 mM), PBS. On the procedure:
In vitro drug release study—DM1-peptide conjugates (10 μM of drug content) were incubated in the presence of the reducing agent GSH (1 mM) in PBS buffer (800 μL). At different time intervals (0, 2, 4, 6, 8, 12, 24, and 48 h), a small amount of solution (100 μL) was taken out for HPLC analysis using C18 analytical column. The amount of DM1 active metabolites released overtime was measured (absorbance detected at 254 nm) and then quantified. The experiment was performed independently in triplicate. A similar experiment was performed to quantify the release of aldox. Aldox-peptide conjugates (100 μM of drug content) were incubated in PBS buffer (800 μL) with different pH (7.4 and 5.5) in a glass vial coated with silica to avoid non-specific adsorption on the reaction vessel surfaces. The amount of drug released over time was then measured as described above (absorbance detected at 480 nm). For accurate quantification, all the results were normalized compared to a DOX control incubated in similar conditions.

The test system of a further data set is kidneys. The experiment in a line: Nephrotoxicity studies, kidney histology and immunohistochemistry (NGAL and KIM-1). The class given is in vivo, BALB/c mice. The conditions noted are these: 3 days after i.v. administration; CIS 10 mg/kg, DM1-Bdd 0.75 mg/kg of drug content. On the procedure:
as §5, §1

[6] abbreviates: i.v., 0.75 mg/kg weekly for 3 weeks.
The mark [7] stands for this setting: one week after completing the treatment course.
[8] abbreviates: i.v. weekly for 3 weeks, DM1/DM1-Bdd 0.75 mg/kg, CIS 10 mg/kg.
The mark [9] stands for this setting: i.v., 0.75 mg/kg of drug content weekly for 3 weeks.

Take `COc1cc2cc(c1Cl)N(C)C(=O)C[C@H](OC(=O)[C@H](C)N(C)C(=O)CCS)[C@]1(C)O[C@H]1[C@H](C)[C@@H]1C[C@@](O)(NC(=O)O1)[C@H](OC)/C=C/C=C(\C)C2` [DM1, N2′-deacetyl-N2′-(3-mercapto-1-oxopropyl)-maytansine]: in data set [1] (3 days), the “induction of KIM-1 and/or NGAL, 3 days” value is on record as “continued induction of KIM-1 and/or NGAL”. Further, the “muscle injury (CK activity)” value in the data set “Serum biochemistry” (DM1 0.75 mg/kg) is “induced muscle injury (CK activity)”. Moreover, in “Serum biochemistry”, the “hepatotoxicity: release of ALP, ALT, and AST” value is “increases in ALT and AST activities”; the urea nitrogen/creatinine ratio result was “increases in ALT and AST activities and BUN/creatinine ratios”. Also, the “fold more potent than commonly used ITC drugs, including MIT, DOX and CIS” value in the data set on panel of BC cell lines is recorded as 100 fold. For the same compound, the overall toxicity result in data set [2] (i.v. weekly for 3 weeks) is “evidences of hepatic and renal injury”. The “extramedullary hematopoiesis (EMH), splenic and hepatic” value in data set [2] (setting [6]) is “Increased splenic and hepatic EMH”. Moreover, in data set [3], the “anti-tumor activity of i.v. DM1-Bdd versus i.v. DM1” value is given as “similar”. In data set [3] (i.v.), the “animal survival compared to i.t. MIT” value is reported as “prolonged animal survival”, the “survival after 100 days” value amounted to 0% and the “tumor growth inhibition compared to i.t. MIT” value is given as “more effective in inhibiting tumor growth”. In [4] (setting [6]), the inflammatory response result was “inflammatory response characterized by increased proportions of neutrophils, monocytes, and platelets”; the reticulocytes entry is on record as “induced reticulocytosis without apparent anemia”. Moreover, the “survival, i.v. or i.t.” value in the data set on Renca/GFP-Luc tumors (i.v. or i.t., 0.75 mg/kg weekly for 3 weeks) is listed as “died”. For the same compound, the “tumor in kidneys by histological examination” value in the data set on Renca/GFP-Luc tumors (setting [7]) is “large and accompanied with an infiltration of mononuclear cells”. The “effectiveness against Renca cell line” value with Renca is listed as “effective”. Also, in the data set with UMUC-3, the “IC50 against UMUC-3” value is reported as “nanomolar (nM) range”; the “potency against UMUC-3 compared to other chemotherapeutics” value was “more potent than cisplatin (CIS), doxorubicin (DOX) and mitomycin (MIT), and as effective as gemcitabine (GEM)”; the “potency compared to DOX” value is “more potent than DOX”.
For `COc1cc2cc(c1Cl)N(C)C(=O)C[C@H](OC(=O)[C@H](C)N(C)C(=O)CCSSCCC(=O)NCCC(=O)N[C@H](CC(=O)O)C(=O)N[C@H](CC(=O)O)C(=O)NCCC(=O)N[C@H](CC(=O)O)C(=O)N[C@H](CC(=O)O)C(=O)NCCC(=O)N[C@H](CC(=O)O)C(=O)N[C@H](CC(=O)O)C(=O)NCCC(=O)N[C@H](CC(=O)O)C(=O)N[C@H](CC(=O)O)C(N)=O)[C@]1(C)O[C@H]1[C@H](C)[C@@H]1C[C@@](O)(NC(=O)O1)[C@H](OC)/C=C/C=C(\C)C2` [DM1-Bdd] ([Mpa](X1)[βAla][dD][dD][βAla][dD][dD][βAla][dD][dD][βAla][dD][dD]-NH2), in data set [1] (0.75 mg/kg of drug content), the “time for KIM-1 and NGAL to return to basal levels” value is reported as at most 3 days. Moreover, the “levels of KIM-1 and NGAL in the urine, 1 day” value in [1] (0.75 mg/kg of drug content, 1 day) was “slightly increased”. In addition, in data set [5], the “drug release in a reducing environment” value is “enabling drug release in a reducing environment”. In addition, in “Serum biochemistry”, the “hepatotoxicity: release of ALP, ALT, and AST” value is “not hepatotoxic, with no significant alteration in the release of ALP, ALT, and AST”; the urea nitrogen/creatinine ratio entry is “normal”. In the data set with kidneys, the “histologic examination of kidneys” value is reported as “did not reveal any abnormalities in the kidneys”; the “immunoreactivity of kidney sections for KIM-1 and NGAL” value is recorded as “no elevation of the immunoreactivity”. In addition, the overall toxicity entry in [2] (i.v. weekly for 3 weeks) is “did not induce unwanted toxicity; also recorded: safe toxicity profile”. Also, the “histopathology of liver, spleen, heart, lungs, or kidneys” value in data set [2] (setting [8]) is listed as “no morphological evidence of injury in the liver, spleen, heart, lungs, or kidneys”. The “treatment outcome of i.v. compared to i.t. administration” value in [3] (0.75 mg/kg of drug content weekly for 3 weeks) is recorded as “better treatment outcome; also recorded: more effective”. For the same compound, the “anti-tumor activity of i.v. DM1-Bdd versus i.v. DM1” value in data set [3] is on record as “similar”. Besides, in data set [3] (i.v.), the “survival after 100 days” value worked out at 36% and the “tumor growth inhibition compared to i.t. MIT” value is “more effective in inhibiting tumor growth”. The “animal survival compared to i.t. MIT” value in data set [3] (i.v., 0.75 mg/kg) is on record as “prolonged animal survival; also recorded: improved the overall survival”. In addition, in data set [3] (i.v., 210 days), the “animals for which treatment was curative” value turned out to be 21%; the “gross and histologic evidence of tumors in survivor mice” value is “lacked gross and histologic evidence (using GFP and Ki67 immunostaining) of tumors”. The “animals which lacked gross and histologic evidence of tumors” value in data set [3] (i.v., 210 days after tumor implantation) worked out at 3 animals. The “tumor size by histology” value in [3] (i.v., end of treatment) is given as “smaller”. Moreover, in [3] (i.v., immunohistochemistry), the GFP-positive cells result is listed as “fewer GFP-positive cells” and the “proportion of cells expressing Ki67” value was “lower proportion of cells expressing the proliferation marker (Ki67)”. In addition, the “red blood cell, leukocyte, or platelet counts or morphologic features” value in data set [4] (setting [8]) is recorded as “did not affect the red blood cell, leukocyte, or platelet counts or morphologic features”. The “survival benefit compared to the free drug” value in the data set on Renca/GFP-Luc tumors (i.v.) is recorded as “significant survival benefit compared to the free drug”. Also, in the data set with Renca/GFP-Luc tumors (setting [9]), the “bioluminescence signals in the majority of the animals” value is on record as “decreased bioluminescence signals”, the “survival after 160 days” value is 50%, the tumor progression result is on record as “inhibit tumor progression” and the tumor size entry was “reduced tumor size”. For the same compound, in the data set on Renca/GFP-Luc tumors (setting [7]), the “animals lacking gross or histologic evidence of the tumor” value is “approximately 50%” and the “tumor in kidneys by histological examination” value is on record as “Minimal tumor was present”.
